Measured values: the Deep4Chem optical property database
One block for each compound: values may come before it.

Assay: photoluminescence quantum yield (fraction); solvent given as SMILES
[1] = in c1ccc2c(c1)c1ccccc1n2-c1ccc(-c2ccc(-n3c4ccccc4c4ccccc43)cc2)cc1

SMILES: CCCCCCC(CCCCCC)N1C(=O)c2cccc3c(-c4ccc(OC)c5ccccc45)ccc(c23)C1=O
- photoluminescence quantum yield (in CCCCCC): 0.33
- photoluminescence quantum yield (in CCCCCCCCCCCCCC): 0.34
- photoluminescence quantum yield (in CCCCCCCCCCCO): 0.23
- photoluminescence quantum yield (in CCCCO): 0.088
- photoluminescence quantum yield (in CN(C)C=O): 0.13
- photoluminescence quantum yield (in Cc1ccccc1): 0.18
- photoluminescence quantum yield (in ClC(Cl)Cl): 0.39

- photoluminescence quantum yield (in ClC(Cl)Cl): 0.03
SMILES: CCCCCCCCn1c(=O)c2cc3c(-c4ccc(N(c5ccccc5)c5ccccc5)cc4)c4cc5c(=O)n(CCCCCCCC)c(=O)c5cc4c(-c4ccc(N(c5ccccc5)c5ccccc5)cc4)c3cc2c1=O

- photoluminescence quantum yield (in CN(C)C=O): 0.89
SMILES: NCCCCCCCCCCCCN1C(=O)c2ccc3c4ccc5c6c(ccc(c7ccc(c2c37)C1=O)c64)C(=O)NC5=O

- photoluminescence quantum yield (in ClCCl): 0.868
SMILES: CCCCCCOc1cc(C=C(C#N)C#N)c(OCCCCCC)cc1C=C(C#N)C#N

SMILES: CC1(C)c2ccccc2N(c2ccccc2)c2ccc(-c3ccc(-c4ccc5c(c4)C(C)(C)c4ccccc4N5c4ccccc4)c4nsnc34)cc21
- photoluminescence quantum yield [1]: 0.92

SMILES: CN(C)c1ccc2cc(C3=[O+][B-](F)(F)OC(c4ccc(C#N)cc4)=C3)ccc2c1
- photoluminescence quantum yield (in C1CCOC1): 0.56
- photoluminescence quantum yield (in CC#N): 0.007
- photoluminescence quantum yield (in CC(C)=O): 0.18
- photoluminescence quantum yield (in CS(C)=O): 0.007
- photoluminescence quantum yield (in Cc1ccccc1): 0.62
- photoluminescence quantum yield (in ClC(Cl)Cl): 0.94
- photoluminescence quantum yield (in ClCCl): 0.87

SMILES: CC(C)(C)c1ccc2c(c1)c1cc(C(C)(C)C)ccc1n2-c1ccccc1-c1nc(-c2ccccc2-n2c3ccc(C(C)(C)C)cc3c3cc(C(C)(C)C)ccc32)nc(-c2ccccc2P(=O)(c2ccccc2)c2ccccc2)n1
- photoluminescence quantum yield (in O=P(c1ccccc1)(c1ccccc1)c1ccccc1Oc1ccccc1P(=O)(c1ccccc1)c1ccccc1): 0.45

- photoluminescence quantum yield (in ClC(Cl)Cl): 0.01
SMILES: CCCCCCCCCCCCOc1cc2c3c(ccc4c5c(NC6CCCCC6)cc6c7c(ccc(c1c34)c75)C(=O)N(C1CCCCC1)C6=O)C(=O)N(C1CCCCC1)C2=O

- photoluminescence quantum yield (in ClCCl): 0.16
- photoluminescence quantum yield (in OCC(F)(F)F): 0.02
SMILES: C=CCOc1nnc(OCCC(F)(F)C(F)(F)C(F)(F)C(F)(F)C(F)(F)C(F)(F)C(F)(F)C(F)(F)F)nn1

- photoluminescence quantum yield (in ClC(Cl)Cl): 0.005
- photoluminescence quantum yield (in ClCCl): 0.006
SMILES: O=[N+]([O-])c1ccc(C#Cc2ccc3ccccc3c2)cc1

- photoluminescence quantum yield (in ClCCl): 0.14
SMILES: CCCCCCCCCCCCCCCCCCOc1ccc([B-]23NC(c4ccccc4)=Nc4cccc([n+]42)N=C(c2ccccc2)N3)cc1

- photoluminescence quantum yield (in ClCCl): 0.03
SMILES: CC(=O)c1ccc(-c2cc(C)[o+]c(C)c2)cc1

- photoluminescence quantum yield (in C1CCCCC1): 0.36
- photoluminescence quantum yield (in C1CCOC1): 0.21
- photoluminescence quantum yield (in CC#N): 0.13
- photoluminescence quantum yield (in ClC(Cl)Cl): 0.2
- photoluminescence quantum yield (in c1ccccc1): 0.3
SMILES: Cc1cc(C)c(B(c2c(C)cc(C)cc2C)c2cc3cc(N(C)C)c4ccccc4c3c3c2ccc2ccccc23)c(C)c1

- photoluminescence quantum yield (in CS(C)=O): 0.88
SMILES: Brc1ccc(-c2nc3sc4ccccc4c3s2)cc1

- photoluminescence quantum yield (in C1CCOC1): 0.7
- photoluminescence quantum yield (in C1COCCO1): 0.73
- photoluminescence quantum yield (in CC#N): 0.64
- photoluminescence quantum yield (in CC(C)O): 0.5
- photoluminescence quantum yield (in CCO): 0.43
- photoluminescence quantum yield (in CCOC(C)=O): 0.68
- photoluminescence quantum yield (in CN(C)C=O): 0.76
- photoluminescence quantum yield (in CO): 0.33
- photoluminescence quantum yield (in CS(C)=O): 0.82
- photoluminescence quantum yield (in O): 0.55
SMILES: Cc1ccc(C2CC(c3ccc(O)cc3)=NN2c2ccc(S(N)(=O)=O)cc2)cc1 (configuration not stated)

SMILES: Cc1c2ccccc2c(C2=C3C=CC=[N+]3[B-](F)(F)n3cccc32)c2ccccc12
- photoluminescence quantum yield (in CC#N): 0.001
- photoluminescence quantum yield (in CCCCCC): 0.041
- photoluminescence quantum yield (in CCO): 0.002
- photoluminescence quantum yield (in CN(C)C=O): 0.002
- photoluminescence quantum yield (in Cc1ccccc1): 0.007
- photoluminescence quantum yield (in ClCCl): 0.005

SMILES: c1ccc(-c2nc(-c3ccccc3)nc(-c3ccc(-n4c5ccccc5c5cc6c7ccccc7n7c8ccccc8c(c54)c67)cc3)n2)cc1
- photoluminescence quantum yield (in O=P(c1ccccc1)(c1ccccc1)c1ccc2oc3ccc(P(=O)(c4ccccc4)c4ccccc4)cc3c2c1): 0.68

- photoluminescence quantum yield (in CCO): 0.41
- photoluminescence quantum yield (in ClC(Cl)Cl): 0.33
SMILES: COc1ccc2c(-c3nc(-c4cccc(Br)c4)no3)cc(=O)oc2c1

- photoluminescence quantum yield (in CCO): 0.39
SMILES: CC/[NH+]=c1\cc2oc3cc(NCCC(=O)NC(C)C(=O)OC)c4ccccc4c3nc-2cc1C (configuration not stated)

- photoluminescence quantum yield (in ClC(Cl)Cl): 0.34
SMILES: COc1cc(C=C(C#Cc2ccccc2)C#Cc2ccccc2)c(OC)cc1C=C(C#Cc1ccccc1)C#Cc1ccccc1

- photoluminescence quantum yield (in C1COCCO1): 0.65
- photoluminescence quantum yield (in CC#N): 0.66
- photoluminescence quantum yield (in CO): 0.61
- photoluminescence quantum yield (in ClCCl): 0.65
SMILES: CNc1ncc2nc(C(=O)OC)n(Cc3ccccc3)c2n1

- photoluminescence quantum yield (in CC#N): 0.051
SMILES: N#C/C(=C\c1ccc([N+](=O)[O-])cc1)c1nc(-c2ccccc2)cs1

- photoluminescence quantum yield (in C1CCCCC1): 0.23
- photoluminescence quantum yield (in C1CCOC1): 0.09
- photoluminescence quantum yield (in CC#N): 0.04
- photoluminescence quantum yield (in ClC(Cl)Cl): 0.1
- photoluminescence quantum yield (in c1ccccc1): 0.14
SMILES: Cc1cc(C)c(B(c2c(C)cc(C)cc2C)c2cc3ccc4ccccc4c3c3c2cc(N(C)C)c2ccccc23)c(C)c1

- photoluminescence quantum yield (in ClCCl): 0.00491
SMILES: COC(=O)C1=C(C(=O)OC)C2(c3ccccc3-c3ccccc32)[C@@H](c2ccc(C)cc2)C=C2c3cc(OC)c(OC)cc3CCN21

- photoluminescence quantum yield (in ClCCl): 0
SMILES: C(#Cc1cccs1)c1ncc(-c2ccccc2)o1

SMILES: COc1ccc(-c2c3ccc([nH]3)c3nc(c(-c4ccc([N+](=O)[O-])cc4)c4ccc([nH]4)c4ccc([nH]4)c(-c4ccc(OC)cc4)c4ccc2o4)C=C3)cc1
- photoluminescence quantum yield (in C1CCOC1): 0.013
- photoluminescence quantum yield (in Cc1ccccc1): 0.075
- photoluminescence quantum yield (in c1ccccc1): 0.08

- photoluminescence quantum yield (in O): 0.34
SMILES: Cc1ccccc1C1=C2C=CC(=[N+](C)C)C=[C]2[Ge]([CH3])([CH3])[c]2cc(N(C)C)ccc21

SMILES: c1ccc2c(c1)Sc1ccccc1N2c1ccc2c(ccc3nc4ccc5cc(N6c7ccccc7Sc7ccccc76)ccc5c4nc32)c1
- photoluminescence quantum yield (in C1CCCCC1): 0.06
- photoluminescence quantum yield (in Cc1ccccc1): 0.07

- photoluminescence quantum yield (in C1CCOC1): 0.006
SMILES: O=S1(=O)C(c2cccs2)=C(c2cccs2)c2ccccc21

- photoluminescence quantum yield (in ClC(Cl)Cl): 0.52
SMILES: CO[B-]1(OC)n2c(C)cc(C)c2C(c2ccc(I)cc2)=C2C(C)=CC(C)=[N+]21

- photoluminescence quantum yield (in ClCCl): 0.1
SMILES: CC(C)(C)OC(=O)/C=C/C1=CC2=C(c3ccccc3)c3cccn3[B-](F)(F)[N+]2=C1

- photoluminescence quantum yield (in ClC(Cl)Cl): 0.45
SMILES: CCCCC1(c2ccccc2)Nc2c(-c3ccc(OC)cc3)ccc(-c3ccc(OC)cc3)c2N=C1c1ccccc1 (configuration not stated)

- photoluminescence quantum yield (in CN(C)C=O): 0.95
SMILES: Nc1ccc(N2C(=O)c3ccc4c5ccc6c7c(ccc(c8ccc(c3c48)C2=O)c75)C(=O)N(c2ccc(O)cc2)C6=O)cc1

SMILES: c1coc(-c2nc3ccccc3[nH]2)c1
- photoluminescence quantum yield (in C1CCOC1): 0.87
- photoluminescence quantum yield (in CCCCCC): 0.95
- photoluminescence quantum yield (in CCO): 0.93
- photoluminescence quantum yield (in CCOCC): 0.94
- photoluminescence quantum yield (in CO): 0.97
- photoluminescence quantum yield (in ClC(Cl)Cl): 0.28
- photoluminescence quantum yield (in ClCCl): 0.86
- photoluminescence quantum yield (in O): 0.96

- photoluminescence quantum yield (in CCO): 0.006
SMILES: CCOC(=O)c1cc(C(=O)OCC)c2ccccc2n1

- photoluminescence quantum yield (in CN(C)C=O): 0.42
SMILES: C[Si](C)(C)O[Si]1(O[Si](C)(C)C)n2c3c4ccccc4c2/N=C2N=C(/N=c4/c5ccccc5/c(n41)=N/C1=NC(=N\3)/c3ccccc31)c1ccccc1\2

- photoluminescence quantum yield (in ClCCl): 0.206
SMILES: c1ccc(-n2c(-c3ccc(N(c4ccc(-c5ccc(N(c6ccc(-c7nc8c9ccccc9c9ccccc9c8n7-c7ccccc7)cc6)c6ccc(-c7nc8c9ccccc9c9ccccc9c8n7-c7ccccc7)cc6)cc5)cc4)c4ccc(-c5nc6c7ccccc7c7ccccc7c6n5-c5ccccc5)cc4)cc3)nc3c4ccccc4c4ccccc4c32)cc1

- photoluminescence quantum yield (in ClC(Cl)Cl): 0.01
SMILES: CCCCN1C(=O)c2c(Br)c(Br)c3c4c(Br)c(Br)c5c6c(c(Br)c(Br)c(c7c(Br)c(Br)c(c2c37)C1=O)c64)C(=O)N(CCCC)C5=O

- photoluminescence quantum yield (in CC#N): 0.045
SMILES: Cc1ccc(-c2ccc(/C=C/c3ccc([N+](=O)[O-])cc3)cn2)nc1

SMILES: O=C1c2ccc(-c3ccc(N(c4ccccc4)c4ccccc4)cc3)cc2C(=O)c2ccc(-c3ccc(N(c4ccccc4)c4ccccc4)cc3)cc21
- photoluminescence quantum yield (in Cc1ccccc1): 0.59
- photoluminescence quantum yield [1]: 0.8

- photoluminescence quantum yield (in ClC(Cl)Cl): 0.02
SMILES: Cc1c2c(c(C)c3ccccc13)C1=CC3Nc4ccccc4NC3C=C12 (configuration not stated)

- photoluminescence quantum yield (in ClC(Cl)Cl): 0.18
SMILES: COc1ccc(-c2nc3ccccc3nc2-c2ccc(OC)cc2)cc1

- photoluminescence quantum yield (in ClCCl): 0.78
SMILES: Cc1cc(-c2ccc(-c3ccccc3)cc2)cc(C)[o+]1

- photoluminescence quantum yield (in ClC(Cl)Cl): 0.28
SMILES: COc1ccc(N(c2ccc(OC)cc2)c2ccc(-c3ccc(-c4ccc(-c5cccs5)c5nsnc45)s3)cc2)cc1

- photoluminescence quantum yield (in ClC(Cl)Cl): 0.9
SMILES: CCOC(CN1C(=O)C2=C(c3ccc(OC)c(OC)c3)N(CC(OCC)OCC)C(=O)C2=C1c1ccc(OC)c(OC)c1)OCC

- photoluminescence quantum yield (in C1CCOC1): 0.0015
SMILES: C(=C1c2ccccc2-c2ccccc21)c1ccc(-c2ccc(C=C3c4ccccc4-c4ccccc43)cc2)cc1

- photoluminescence quantum yield (in C1COCCO1): 0.11
- photoluminescence quantum yield (in CC#N): 0.1
- photoluminescence quantum yield (in CC(C)O): 0.16
- photoluminescence quantum yield (in CCO): 0.14
- photoluminescence quantum yield (in CCOC(C)=O): 0.08
- photoluminescence quantum yield (in CN(C)C=O): 0.13
- photoluminescence quantum yield (in CO): 0.14
- photoluminescence quantum yield (in CS(C)=O): 0.15
- photoluminescence quantum yield (in OCC(O)CO): 0.11
- photoluminescence quantum yield (in OCCO): 0.21
SMILES: Nc1ncnc2c1c(-c1ccc3ccccc3c1)nn2[C@H]1C[C@H](O)[C@@H](CO)O1

- photoluminescence quantum yield (in ClCCl): 0.15
SMILES: COc1ccc(/C=C/c2cc(/C=C/c3ccc(OC)cc3)nc(/C=C/c3ccc(OC)cc3)n2)cc1

- photoluminescence quantum yield (in CC#N): 0.555
- photoluminescence quantum yield (in CCCCCC): 0.94
- photoluminescence quantum yield (in CCO): 0.9
- photoluminescence quantum yield (in CN(C)C=O): 0.77
- photoluminescence quantum yield (in ClC(Cl)Cl): 0.64
SMILES: COc1ccc(-n2nc(C(=O)N3CCCC3)c(N3CCCC3)n2)cc1

SMILES: N#Cc1ccc(N2c3ccccc3C(c3ccccc3)(c3ccccc3)c3ccccc32)cc1
- photoluminescence quantum yield (in Cc1ccccc1): 0.22

- photoluminescence quantum yield (in CC#N): 0.16
- photoluminescence quantum yield (in CO): 0.02
- photoluminescence quantum yield (in CS(C)=O): 0.12
- photoluminescence quantum yield (in ClC(Cl)Cl): 0.18
SMILES: O=C1c2ccccc2-c2cc3ccccc3c(=O)n21

- photoluminescence quantum yield (in ClCCl): 0.053
SMILES: Cc1cc2sccc2c2[nH]c3ccccc3c12

- photoluminescence quantum yield (in CO): 0.032
- photoluminescence quantum yield (in ClC(Cl)Cl): 0.16
SMILES: Cc1nc2c(ccc3c2sc(/C=C/C=C/c2ccc(N(C)C)cc2)[n+]3C)s1

- photoluminescence quantum yield (in C1CCCCC1): 0.26
SMILES: COc1ccc2c3c(c4ccc(OC)cc4c2c1)C(C)(C)c1c-3ccc2ccccc12
